One assay concerns the target GST-Bcl-2 (Homo sapiens, UniProt P10415). The assay can be described thus: TR-FRET binding assay, GST-Bcl-2 with F-Bak peptide probe. The settings on record: TR-FRET Binding Affinity, GST-Bcl-2, F-Bak peptide probe. Summed up: (§1)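 Ki was derived with Wang's equation for competitive binding of two ligands. The read-out was time-resolved fluorescence after a 3 h room-temperature incubation, using a Tb-labelled antibody donor and the F-Bak peptide acceptor (excitation 340/35 nm). Test compounds entered as DMSO serial dilutions starting at 50 μM, which was the 2× concentration.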
Background: TR-FRET usually uses a lanthanide donor and a delayed reading to cut background.

In another assay the target is GST-Bcl-XL (Homo sapiens, UniProt Q07817). The assay can be described thus: TR-FRET binding assay, GST-Bcl-XL with F-Bak peptide probe. The conditions noted are these: TR-FRET Binding Affinity, GST-Bcl-XL, F-Bak peptide probe. The method in brief: as §1
Sequence of GST-Bcl-XL (Q07817 whole entry): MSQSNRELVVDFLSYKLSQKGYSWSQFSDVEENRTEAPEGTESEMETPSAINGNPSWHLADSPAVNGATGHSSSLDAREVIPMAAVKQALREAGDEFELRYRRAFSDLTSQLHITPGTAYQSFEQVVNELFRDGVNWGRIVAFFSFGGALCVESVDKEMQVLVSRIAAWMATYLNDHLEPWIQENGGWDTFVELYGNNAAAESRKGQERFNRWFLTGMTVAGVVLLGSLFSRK
A further assay has as its system FL5.12/Bcl-2 cells. Put plainly: FL5.12/Bcl-2 cell viability assay under IL-3 withdrawal (CellTitre Glo). It is filed as cell-based, murine. The conditions noted are these: Mus musculus, IL-3 withdrawn 48 hrs, then 24 hrs with compound. From the text:
FL5.12 is an IL-3 dependent prolymphocytic murine cell line that undergoes apoptosis upon IL-3 withdrawal as a result of the upregulation of pro-apoptotic Bcl-2 proteins such as Bim and Puma. Stable overexpression of anti-apoptotic Bcl-2 protein (FL5.12/Bcl-2) protects against apoptosis induced by IL-3 withdrawal by sequestration of Bim and Puma. […] The ability of compounds to kill FL5.12/Bcl-2 cells upon IL-3 withdrawal is a direct measure of the compounds' ability to inhibit anti-apoptotic Bcl-2 protein function.
Wild type FL5.12/Bcl-2 overexpressing stable transfectants were cultured in RPMI-1640 supplemented with 2 mM L-glutamine, 10% FBS, 1 mM sodium pyruvate, 2 mM HEPES, 1% penicillin/streptomycin (Invitrogen), 57 μM β-ME, and 10% WEHI-3B conditioned medium (source of IL-3) and maintained at 37° C. containing 5% CO2. 1×10^6 cells/ml were washed 1×PBS and resuspended in medium not supplemented with 10% WEHI-3B for 48 hrs prior to cytotoxicity assays. Cells were then treated for an additional 24 hrs in the presence of various concentrations of the indicated compounds. Cell viability was assessed by CellTitre Glo assay (Promega Corp.) according to the manufacturer's recommendations.

This is an account of results in patent US9073855B2, “BCL-2 selective apoptosis-inducing agents for the treatment of cancer and immune diseases” (AbbVie Inc., priority 2008, dated 2015).

pEC50, pKi: −log10 of the molar value.

Sequence of GST-Bcl-2 (P10415 whole entry): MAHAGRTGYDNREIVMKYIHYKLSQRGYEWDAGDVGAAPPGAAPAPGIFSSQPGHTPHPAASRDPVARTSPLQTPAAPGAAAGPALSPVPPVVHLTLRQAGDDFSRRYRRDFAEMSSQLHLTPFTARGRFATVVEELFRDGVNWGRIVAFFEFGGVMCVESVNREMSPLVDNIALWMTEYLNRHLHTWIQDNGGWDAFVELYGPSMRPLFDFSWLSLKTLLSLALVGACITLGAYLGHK

Consider `CC(c1ccccc1-c1ccc(Cl)cc1)N1CCN(c2ccc(C(=O)NS(=O)(=O)c3ccc(NCC4CCOCC4)c([N+](=O)[O-])c3)c(Oc3cccc4[nH]ccc34)c2)CC1` (stereo not drawn) [Example 175, 4-{4-[1-(4′-chloro-1,1′-biphenyl-2-yl)ethyl]piperazin-1-yl}-2-(1H-indol-4-yloxy)-N-({3-nitro-4-[(tetrahydro-2H-pyran-4-ylmethyl)amino]phenyl}sulfonyl)benzamide], for which the negative-log Ki (pKi) (as a rule, the negative decadic logarithm of the Ki, by convention in mol/L) at GST-Bcl-2 is 10.00; on GST-Bcl-XL it was under 6.18. Besides, the pEC50 (commonly the negative decadic logarithm of the EC50, by convention in mol/L) in the assay on FL5.12/Bcl-2 cells was 8.21.
For the compound `CC1(C)CCC(CN2CCN(c3ccc(C(=O)NS(=O)(=O)c4ccc(NCC5(N)CCOCC5)c([N+](=O)[O-])c4)c(Oc4cccc5[nH]ccc45)c3)CC2)=C(c2ccc(Cl)cc2)C1` [Example 176, N-[(4-{[(4-aminotetrahydro-2H-pyran-4-yl)methyl]amino}-3-nitrophenyl)sulfonyl]-4-(4-{[2-(4-chlorophenyl)-4,4-dimethylcyclohex-1-en-1-yl]methyl}piperazin-1-yl)-2-(1H-indol-4-yloxy)benzamide], the negative-log Ki (pKi) at GST-Bcl-2 was 9.74; at GST-Bcl-XL, 7.49. In addition, the pEC50 in the assay with FL5.12/Bcl-2 cells is 7.23.
With `CC1(C)CCC(CN2CCN(c3ccc(C(=O)NS(=O)(=O)c4ccc(NCC5CCOCC5)c([N+](=O)[O-])c4)c(Oc4ccc5[nH]ccc5c4)c3)CC2)=C(c2ccc(Cl)cc2)C1` [Example 177, 4-(4-{[2-(4-chlorophenyl)-4,4-dimethylcyclohex-1-en-1-yl]methyl}piperazin-1-yl)-2-(1H-indol-5-yloxy)-N-({3-nitro-4-[(tetrahydro-2H-pyran-4-ylmethyl)amino]phenyl}sulfonyl)benzamide], the pKi was 9.78 at GST-Bcl-2 and 6.88 on GST-Bcl-XL. Besides, the pEC50 in the assay with FL5.12/Bcl-2 cells was 7.71.
For `CC1(C)CC(c2ccc(Cl)cc2)=C(CN2CCN(c3ccc(C(=O)NS(=O)(=O)c4ccc(NCC5CCOCC5)c([N+](=O)[O-])c4)c(Oc4ccc5[nH]ccc5c4)c3)CC2)CO1` [Example 182, 4-(4-{[4-(4-chlorophenyl)-6,6-dimethyl-5,6-dihydro-2H-pyran-3-yl]methyl}piperazin-1-yl)-2-(1H-indol-5-yloxy)-N-({3-nitro-4-[(tetrahydro-2H-pyran-4-ylmethyl)amino]phenyl}sulfonyl)benzamide] the same measures were 10.06, under 6.18 and 7.91.
For `CN1CCC(O)(CNc2ccc(S(=O)(=O)NC(=O)c3ccc(N4CCN(CC5=C(c6ccc(Cl)cc6)CC(C)(C)CC5)CC4)cc3Oc3ccc4[nH]ccc4c3)cc2[N+](=O)[O-])CC1` [Example 183, 4-(4-{[2-(4-chlorophenyl)-4,4-dimethylcyclohex-1-en-1-yl]methyl}piperazin-1-yl)-N-[(4-{[(4-hydroxy-1-methylpiperidin-4-yl)methyl]amino}-3-nitrophenyl)sulfonyl]-2-(1H-indol-5-yloxy)benzamide] the same measures were 10.41, 8.03 and 7.51.
Turning to `CN1CCC(Nc2ccc(S(=O)(=O)NC(=O)c3ccc(N4CCN(CC5=C(c6ccc(Cl)cc6)CC(C)(C)CC5)CC4)c(F)c3Oc3ccc4[nH]ccc4c3)cc2[N+](=O)[O-])CC1` [Example 184, 4-(4-{[2-(4-chlorophenyl)-4,4-dimethylcyclohex-1-en-1-yl]methyl}piperazin-1-yl)-3-fluoro-2-(1H-indol-5-yloxy)-N-({4-[(1-methylpiperidin-4-yl)amino]-3-nitrophenyl}sulfonyl)benzamide], the negative logarithm of the Ki (pKi) is 9.55 at GST-Bcl-2 and under 6.18 at GST-Bcl-XL. Also, the pEC50 with FL5.12/Bcl-2 cells is 7.57.
In the case of `CC1(C)CCC(CN2CCN(c3ccc(C(=O)NS(=O)(=O)c4ccc(NC5CCN(C6CCOCC6)CC5)c([N+](=O)[O-])c4)c(Oc4ccc5[nH]ccc5c4)c3F)CC2)=C(c2ccc(Cl)cc2)C1` [Example 185, 4-(4-{[2-(4-chlorophenyl)-4,4-dimethylcyclohex-1-en-1-yl]methyl}piperazin-1-yl)-3-fluoro-2-(1H-indol-5-yloxy)-N-({3-nitro-4-[(1-tetrahydro-2H-pyran-4-ylpiperidin-4-yl)amino]phenyl}sulfonyl)benzamide], the pKi was 9.64 at GST-Bcl-2 and 7.08 at GST-Bcl-XL. Moreover, in the assay on FL5.12/Bcl-2 cells, the negative logarithm of the EC50 (pEC50) was 7.20.
For the compound `CN1CCC(O)(CNc2ccc(S(=O)(=O)NC(=O)c3ccc(N4CCN(CC5=C(c6ccc(Cl)cc6)CC(C)(C)CC5)CC4)cc3Oc3cccc4[nH]ccc34)cc2[N+](=O)[O-])CC1` [Example 186, 4-(4-{[2-(4-chlorophenyl)-4,4-dimethylcyclohex-1-en-1-yl]methyl}piperazin-1-yl)-N-[(4-{[(4-hydroxy-1-methylpiperidin-4-yl)methyl]amino}-3-nitrophenyl)sulfonyl]-2-(1H-indol-4-yloxy)benzamide], the pKi is 11.00 on GST-Bcl-2 and 7.95 at GST-Bcl-XL. Further, the pEC50 in the assay on FL5.12/Bcl-2 cells was 7.69.
For `CC1(C)CCC(CN2CCN(c3ccc(C(=O)NS(=O)(=O)c4ccc(N[C@@H]5CCN(Cc6ccccc6)C[C@@H]5O)c([N+](=O)[O-])c4)c(Oc4ccc5[nH]ccc5c4)c3)CC2)=C(c2ccc(Cl)cc2)C1` [Example 187, N-[(4-{[(3S,4R)-1-benzyl-3-hydroxypiperidin-4-yl]amino}-3-nitrophenyl)sulfonyl]-4-(4-{[2-(4-chlorophenyl)-4,4-dimethylcyclohex-1-en-1-yl]methyl}piperazin-1-yl)-2-(1H-indol-5-yloxy)benzamide] the same measures were 9.48, under 6.18 and 6.47.
As for `CC1(C)CCC(CN2CCN(c3ccc(C(=O)NS(=O)(=O)c4ccc(NCC5(N)CCOCC5)c([N+](=O)[O-])c4)c(Oc4ccc5[nH]ccc5c4)c3)CC2)=C(c2ccc(Cl)cc2)C1` [Example 188, N-[(4-{[(4-aminotetrahydro-2H-pyran-4-yl)methyl]amino}-3-nitrophenyl)sulfonyl]-4-(4-{[2-(4-chlorophenyl)-4,4-dimethylcyclohex-1-en-1-yl]methyl}piperazin-1-yl)-2-(1H-indol-5-yloxy)benzamide], the pKi was 9.99 on GST-Bcl-2 and 6.94 on GST-Bcl-XL. The pEC50 in the assay on FL5.12/Bcl-2 cells was 7.61.
With `COCCN1CCC(Nc2ccc(S(=O)(=O)NC(=O)c3ccc(N4CCN(CC5=C(c6ccc(Cl)cc6)CC(C)(C)CC5)CC4)cc3Oc3ccc4[nH]ccc4c3)cc2[N+](=O)[O-])CC1` [Example 189, 4-(4-{[2-(4-chlorophenyl)-4,4-dimethylcyclohex-1-en-1-yl]methyl}piperazin-1-yl)-2-(1H-indol-5-yloxy)-N-[(4-{[1-(2-methoxyethyl)piperidin-4-yl]amino}-3-nitrophenyl)sulfonyl]benzamide], the negative logarithm of the Ki (pKi) on GST-Bcl-2 is 9.84; at GST-Bcl-XL, 7.29. In addition, the pEC50 with FL5.12/Bcl-2 cells is 7.83.
The corresponding values for `CN1CCN(Nc2ccc(S(=O)(=O)NC(=O)c3ccc(N4CCN(CC5=C(c6ccc(Cl)cc6)CC(C)(C)CC5)CC4)cc3Oc3cccc4[nH]ccc34)cc2[N+](=O)[O-])CC1` [Example 190, 4-(4-{[2-(4-chlorophenyl)-4,4-dimethylcyclohex-1-en-1-yl]methyl}piperazin-1-yl)-2-(1H-indol-4-yloxy)-N-({4-[(4-methylpiperazin-1-yl)amino]-3-nitrophenyl}sulfonyl)benzamide] are 9.29, 7.01 and 7.62.
